Laboratory results from patent US20100086546A1, “Toll-LIke Receptor 4 Deficiency and Downstream Effectors Cause Pulmonary Emphysema” (Yale University, priority 2007, published 2010).

Legend:
Tlr4−/− MLECs = assay: Elastolytic activity in Tlr4−/− MLECs treated with DPI, NAC or apocynin; assay type: cell-based, mouse; conditions: DPI 10 μM, NAC 100 μM, apocynin 10 μM; 24 hours
Method: MLECs were isolated by as described by Kuhlencordt et al. (Kuhlencordt P. J., et al., 2004, Am. J. Physiol. Cell Physiol. 286:C1195C1202.), with some modifications. Briefly, lungs were extracted, minced, and digested for 1 hour at 37° C. with 0.1% collagenase (Roche Diagnostics) in RPMI-1640 with 100 U/ml penicillin G and 100 μg/ml streptomycin. The digest was passed through a 100-μm cell strainer to remove undigested tissue fragments. Cells were pelleted at 200 g for 5 minutes; resuspended in MLEC medium containing 20% FBS, 40% DMEM, and 40% F12 with 100 U/ml penicillin G and 100 μg/ml streptomycin; and plated onto 0.1% gelatin-coated T75 flasks. Cells were washed after 24 hours and cultured for 2-4 days. Cells were trypsinized with 2 ml trypsin/EDTA, PBS added, and spun for 5 minutes at 200 g to remove the supernatant. Cells were resuspended in 2% FBS containing 10 μl biotin-labeled rat anti-mouse CD31 (PECAM-1) antibody (BD Biosciences—Pharmingen). After incubation on ice for 30 minutes, the cells were washed with streptavidin magnetic beads (New England Biolabs Inc.). Cells were washed with 2% FBS, resuspended in 5 ml of 2% FBS, and incubated on ice for 30 minutes. The cells were then placed on the magnet for 5 minutes, and unbound cells were removed while bound cells were resuspended in medium and plated onto a 0.1% gelatin-coated T25 flask. CD31 staining and flow cytometry confirmed that greater than 95% of the cells were endothelial cells. […]
The elastolytic activities in lung tissues, BAL, and cell lysates was determined by hydrolysis of insoluble elastin and detected spectrophotometrically using elastin-Congo red as a substrate according to the method described previously (Rust L., et al., 1994, Methods Enzymol. 235:554-562). […] The optical density of the supernatant was measured at 485 nm with a DYNEX Revelation version 3.2 spectrophotometer. The elastolytic activity was calculated as ng elastase/μg protein in the lysates according to the standard curve established by the reaction of porcine elastase and elastin-Congo red.

Tlr4−/− mice [1] = assay: Reduced GSH/oxidized GSH in BAL of Tlr4−/− mice on antioxidant therapy; assay type: in vivo, mouse; conditions: NAC 1 g/kg or apocynin 3 mg/kg in drinking water, 3 months
From the text: (§1) Tlr4^−/− and MyD88^−/− mice have been previously described (Zhang X., et al., 2005, J. Immunol. 175:4834-4838; Adachi O., et al., 1998, Immunity. 9:143-150; Hoshino K., et al., 1999, J. Immunol. 162:3749-3752). TLR4-deficient mouse lines C3H/HeJ and C57BL/10ScNJ and their respective controls were purchased from The Jackson Laboratory. C57BL/6J Tlr4^−/− mice were generated after greater than 10 generations of backcrossing onto a C57BL/6J background. WT littermates were used as controls. For antioxidant therapy, Tlr4^−/− mice were randomized into 3 groups at 3 weeks of age—NAC (1 g/kg body weight; Sigma-Aldrich) (apocynin (3 mg/kg body weight; Calbiochem; EMD Biosciences) (or vehicle-only drinking water—and then sacrificed at 3 months. Mice were maintained under specific pathogen-free conditions at the animal facility of Yale University School of Medicine. Animal protocols were reviewed and approved by the Animal Care and Use Committee at Yale University. The ratio of reduced GSH to oxidized GSH was measured in cell-free BAL using GSH/GSSG-412 kit (Oxis International Inc.) according to the manufacturer's instructions.

Tlr4−/− mice [2] = assay: Total antioxidant capacity in BAL and serum of Tlr4−/− mice on antioxidant therapy; assay type: in vivo, mouse; conditions: NAC 1 g/kg or apocynin 3 mg/kg in drinking water from 3 weeks, sacrificed at 3 months; for total antioxidant content in serum: serum (data not shown)
From the text: as §1, with “Total antioxidant capacity” for “The ratio of reduced GSH to oxidized GSH”, “BAL and serum” for “BAL”, “the Quantitative Assay for Total Antioxidant Potential” for “GSH/GSSG-412”, “instructions. […] Bathocuproine selectively forms a 2:1 complex with Cu^+, which has a maximum absorbance at 490 nm. A standard of a known uric acid concentration was used to create a calibration curve. Results are expressed as μM copper-reducing equivalents.” for “instructions.”

Tlr4−/− mice [3] = assay: Emphysema (lung volume, chord length, histology) in Tlr4−/− mice on antioxidant therapy; assay type: in vivo, mouse; conditions: NAC 1 g/kg or apocynin 3 mg/kg in drinking water from 3 weeks, sacrificed at 3 months
From the text: as §1, with “University. Mice were anesthetized, the trachea was cannulated, and the lungs were removed and inflated with PBS at 25 cm H2O.” for “University.”, “The size” for “The ratio”, “of the lung” for “of reduced GSH to oxidized GSH”, “was evaluated by volume displacement. Hematoxylin and eosin (H&E) or periodic acid-Schiff with diastase (PAS) staining was performed after pressure fixation with Streck solution (Streck Laboratories)” for “was measured”, “in” for “in cell-free BAL using GSH/GSSG-412 kit (Oxis International Inc.) according to”, “the Research Pathology Laboratory at Yale University. […]” for “the manufacturer's instructions.”

Tlr4−/− mice [4] = assay: Elastase inhibitory capacity (EIC) in Tlr4−/− mice on antioxidant therapy; assay type: in vivo, mouse; conditions: NAC 1 g/kg or apocynin 3 mg/kg in drinking water, BAL, 3 months
From the text: Tlr4^-/- and MyD88^-/- mice have been previously described (Zhang X., et al., 2005, J. Immunol. 175:4834-4838; Adachi O., et al., 1998, Immunity. 9:143-150; Hoshino K., et al., 1999, J. Immunol. 162:3749-3752). TLR4-deficient mouse lines C3H/HeJ and C57BL/10ScNJ and their respective controls were purchased from The Jackson Laboratory. C57BL/6J Tlr4^-/- mice were generated after greater than 10 generations of backcrossing onto a C57BL/6J background. WT littermates were used as controls. For antioxidant therapy, Tlr4^-/- mice were randomized into 3 groups at 3 weeks of age-NAC (1 g/kg body weight; Sigma-Aldrich) (apocynin (3 mg/kg body weight; Calbiochem; EMD Biosciences) (or vehicle-only drinking water-and then sacrificed at 3 months. Mice were maintained under specific pathogen-free conditions at the animal facility of Yale University School of Medicine. Animal protocols were reviewed and approved by the Animal Care and Use Committee at Yale University. EIC was assessed in BAL and serum using previously described methods (Klumpp T. et al., 1979, Clin. Chem. 25:969-97; […]., et al., 2001, Am. J. Respir. Crit. Care Med. 164:886-890). […] EICs against PPE (type III; Sigma-Aldrich) in BAL and serum were determined using succinyl-[…]-nitroanilide (SAPNA; Sigma-Aldrich) as the elastase substrate. EIC was expressed as percentage of enzyme activity inhibited by serum or BAL samples. […]

[5] = system: elastase- and cigarette smoke-induced emphysema; conditions: aerosolized; cited from earlier work

Compound	elastolytic activity in Tlr4−/− MLECs (Tlr4−/− MLECs)	GSH levels (reduced GSH/oxidized GSH ratio) (Tlr4−/− mice [1])	total antioxidant content in BAL (Tlr4−/− mice [2])	total antioxidant content in serum (Tlr4−/− mice [2])	TLR4-mediated emphysema (lung volume, mean linear chord length, histology) (Tlr4−/− mice [3])	EIC (Tlr4−/− mice [4])	protection against emphysema [5]
c1ccc2c(c1)[I+]c1ccccc1-2 [DPI, diphenylene iodonium]	reversed to levels achieved by the broad-acting antioxidant NAC	–	–	–	–	–	–
CC(=O)N[C@@H](CS)C(=O)O [NAC]	reversed	increased GSH levels	increased the total antioxidant content in BAL	increased the total antioxidant content	prevented TLR4-mediated emphysema	an increase in the EIC	–
COc1cc(C(C)=O)ccc1O [apocynin]	reversed to levels achieved by the broad-acting antioxidant NAC	increased GSH levels	increased the total antioxidant content in BAL	increased the total antioxidant content	prevented TLR4-mediated emphysema	an increase in the EIC	–
Hyaluronan [HA]	–	–	–	–	–	–	protects against elastase- and cigarette smoke-induced emphysema
